Tests used:
mouse TLR7 = target: T1, mouse TLR7 (Mus musculus, UniProt P58681); experiment: HEK293 SEAP reporter assay, mouse TLR7 (Biological Example 1); format: cell-based; details: HEK293-mouseTLR7 reporter cells, 4 hrs; read-out: mTLR7 EC50
T1 construct: host or cells: HEK293
T1 sequence (P58681 27-1050): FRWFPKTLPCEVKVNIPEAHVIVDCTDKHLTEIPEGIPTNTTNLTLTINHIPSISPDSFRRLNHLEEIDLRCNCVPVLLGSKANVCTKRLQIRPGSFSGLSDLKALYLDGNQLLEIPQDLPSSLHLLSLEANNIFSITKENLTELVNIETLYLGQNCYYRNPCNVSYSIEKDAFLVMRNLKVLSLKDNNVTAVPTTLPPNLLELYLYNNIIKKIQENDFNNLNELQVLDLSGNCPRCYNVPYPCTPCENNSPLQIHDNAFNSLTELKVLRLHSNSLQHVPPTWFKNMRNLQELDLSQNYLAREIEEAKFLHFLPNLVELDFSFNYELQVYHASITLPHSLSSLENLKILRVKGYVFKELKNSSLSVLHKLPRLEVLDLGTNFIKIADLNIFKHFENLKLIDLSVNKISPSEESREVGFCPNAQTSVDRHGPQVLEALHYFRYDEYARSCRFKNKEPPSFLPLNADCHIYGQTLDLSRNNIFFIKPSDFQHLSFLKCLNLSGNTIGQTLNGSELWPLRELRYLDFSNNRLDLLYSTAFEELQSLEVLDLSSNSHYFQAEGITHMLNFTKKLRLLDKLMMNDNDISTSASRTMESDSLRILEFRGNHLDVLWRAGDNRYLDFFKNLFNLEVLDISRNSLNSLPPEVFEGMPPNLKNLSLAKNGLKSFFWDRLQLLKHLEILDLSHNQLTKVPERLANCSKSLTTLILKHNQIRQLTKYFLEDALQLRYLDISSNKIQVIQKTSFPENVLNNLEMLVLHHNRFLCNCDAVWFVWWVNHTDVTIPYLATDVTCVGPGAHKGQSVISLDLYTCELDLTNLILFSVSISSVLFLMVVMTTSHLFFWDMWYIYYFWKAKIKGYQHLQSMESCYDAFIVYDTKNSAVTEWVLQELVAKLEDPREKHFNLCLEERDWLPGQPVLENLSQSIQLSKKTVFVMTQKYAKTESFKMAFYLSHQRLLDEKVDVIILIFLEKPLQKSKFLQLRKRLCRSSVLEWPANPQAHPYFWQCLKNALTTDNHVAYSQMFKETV
Description: (§1) In this example, the activity of the TLR7 agonists to activate human TLR7, hTLR7 (or human TLR8, hTLR8, or mouse TLR7, mTLR7) pathway was evaluated on HEK293 reporter cells transfected with human TLR7 (or mouse TLR7 or human TLR8) and an inducible SEAP (secreted embryonic alkaline phosphatase) reporter gene. The SEAP reporter gene is placed under the control of the IFN-β minimal promoter fused to five NF-κB and AP-1-binding sites. Stimulation with a TLR7 agonist activates NF-KB and AP-1 which induces the production of SEAP. Levels of SEAP was determined with HEK-Blue Detection medium.
(§2) HEK293-humanTLR7, HEK293-mouseTLR7 and HEK293-humanTLR8 reporter cell lines were purchased from Invivogen and cell lines were maintained in manufacture recommended culture medium with required supplemental antibiotics. On the day of assay, the cells were harvested with Accutase and counted by the Vi-CELL Cell Viability Analyzers. Cells were re-suspended in HEK blue detection medium and a total of 10000 cells were seeded in each well of a 384-well flat bottom plate. Serial dilutions of TLR7 agonists free drugs (1:3 serial dilution starting from 5 μM) was added into treatment wells. Assay plates were cultured at 37° C. in a CO2 incubator for […]. HEK-Blue™ Detection medium changes to a purple/blue color in the presence of secreted SEAP, which can be detected by spectrophotometry at 620-655 nm. […]

human TLR8 = target: T2, human TLR8 (Homo sapiens, UniProt Q9NR97); experiment: HEK293 SEAP reporter assay, human TLR8 (Biological Example 1); format: cell-based; details: HEK293-humanTLR8 reporter cells, 4 hrs; read-out: hTLR8 EC50
T2 construct: host or cells: HEK293
T2 sequence (Q9NR97 27-1041): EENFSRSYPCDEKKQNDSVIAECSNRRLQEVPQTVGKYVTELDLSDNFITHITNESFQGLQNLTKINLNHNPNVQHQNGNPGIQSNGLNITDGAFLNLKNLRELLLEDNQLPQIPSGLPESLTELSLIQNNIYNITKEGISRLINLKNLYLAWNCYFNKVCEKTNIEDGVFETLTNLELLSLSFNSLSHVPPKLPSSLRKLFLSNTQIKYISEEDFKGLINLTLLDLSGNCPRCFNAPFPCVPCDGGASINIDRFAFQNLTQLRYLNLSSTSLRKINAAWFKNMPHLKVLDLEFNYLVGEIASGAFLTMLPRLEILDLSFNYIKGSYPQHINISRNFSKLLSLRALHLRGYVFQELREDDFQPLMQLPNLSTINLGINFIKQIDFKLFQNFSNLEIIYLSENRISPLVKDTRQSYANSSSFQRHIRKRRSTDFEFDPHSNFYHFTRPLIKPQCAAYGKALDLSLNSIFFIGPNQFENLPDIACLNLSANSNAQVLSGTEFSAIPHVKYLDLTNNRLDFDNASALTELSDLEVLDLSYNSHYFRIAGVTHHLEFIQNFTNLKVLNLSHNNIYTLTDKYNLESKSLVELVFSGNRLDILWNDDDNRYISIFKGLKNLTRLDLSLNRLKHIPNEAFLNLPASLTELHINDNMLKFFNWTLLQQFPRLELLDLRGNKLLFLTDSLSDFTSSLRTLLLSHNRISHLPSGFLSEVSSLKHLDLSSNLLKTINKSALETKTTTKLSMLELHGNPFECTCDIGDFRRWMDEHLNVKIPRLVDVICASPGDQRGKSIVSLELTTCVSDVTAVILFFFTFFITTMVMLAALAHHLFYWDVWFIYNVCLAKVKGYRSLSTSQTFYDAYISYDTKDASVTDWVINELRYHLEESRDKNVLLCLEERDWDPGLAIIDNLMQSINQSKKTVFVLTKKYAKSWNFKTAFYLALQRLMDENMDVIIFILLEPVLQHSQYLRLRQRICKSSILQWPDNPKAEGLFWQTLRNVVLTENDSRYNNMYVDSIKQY
Description: as §1, §2

EC50 (mouse TLR7): 29.1 nM
EC50 (human TLR8): 820 nM
Compound: CCCCn1nc2c(N)nc3ccccc3c2c1Cc1ccc(CN)cc1 [Compound 1, 1-(4-(aminomethyl)benzyl)-2-butyl-2H-pyrazolo[3,4-c]quinolin-4-amine]

From patent US20220259202A1, “1-(4-(AMINOMETHYL)BENZYL)-2-BUTYL-2H-PYRAZOLO[3,4-C]QUINOLIN-4-AMINE DERIVATIVES AND RELATED COMPOUNDS AS TOLL-LIKE RECEPTOR (TLR) 7/8 AGONISTS, AS WELL AS ANTIBODY DRUG CONJUGATES THEREOF FOR USE IN CANCER THERAPY AND DIAGNOSIS” (SUTRO BIOPHARMA, INC., priority 2019, published 2022)
